Assay results published in ChEMBL document CHEMBL4680222, “Sensitive fluorogenic substrates for sirtuin deacylase inhibitor discovery” (Eur J Med Chem, 2020).

Experiments:
[1] = target: T1, NAD-dependent protein deacylase sirtuin-5, mitochondrial (Homo sapiens, UniProt Q9NXA8); assay: Inhibition of human N-terminal His-tagged SIRT5 (34 to 302 residues) expressed in Escherichia coli using Ac-Tyr-Lys-Leu-Lys(Ac)-AMC as substrate preincubated for 10 mins followed by substrate addition and measured after 30 mins in presence of NAD+ by fluorescence assay
T1 sequence (Q9NXA8 whole entry, the tested form may be a part): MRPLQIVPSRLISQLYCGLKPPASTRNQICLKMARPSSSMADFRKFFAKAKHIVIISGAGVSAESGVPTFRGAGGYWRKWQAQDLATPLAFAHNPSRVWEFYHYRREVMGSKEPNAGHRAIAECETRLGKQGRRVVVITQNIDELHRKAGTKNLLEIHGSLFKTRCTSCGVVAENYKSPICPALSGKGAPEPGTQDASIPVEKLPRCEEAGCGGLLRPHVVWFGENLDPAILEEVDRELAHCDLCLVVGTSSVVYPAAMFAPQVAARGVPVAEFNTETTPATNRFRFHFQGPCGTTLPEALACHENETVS

[2] = target: T1, NAD-dependent protein deacylase sirtuin-5, mitochondrial; assay: Inhibition of human N-terminal His-tagged SIRT5 (34 to 302 residues) expressed in Escherichia coli using Ac-Leu-Gly-Ser-Lys(Su)-AMC as substrate preincubated for 10 mins followed by substrate addition and measured after 30 mins in presence of NAD+ by fluorescence assay
[3] = target: T1, NAD-dependent protein deacylase sirtuin-5, mitochondrial; assay: Inhibition of human N-terminal His-tagged SIRT5 (34 to 302 residues) expressed in Escherichia coli using Ac-His-Phe-Ser-Lys(Su)-AMC as substrate preincubated for 10 mins followed by substrate addition and measured after 30 mins in presence of NAD+ by fluorescence assay
[4] = target: T2, NAD-dependent protein deacetylase sirtuin-1 (Homo sapiens, UniProt Q96EB6); assay: Inhibition of human N-terminal His-tagged SIRT1 (183 to 664 residues) expressed in Escherichia coli using Ac-Tyr-Lys-Leu-Lys(Ac)-AMC as substrate preincubated for 10 mins followed by substrate addition and measured after 30 mins in presence of NAD+ by fluorescence assay
T2 sequence (Q96EB6 whole entry): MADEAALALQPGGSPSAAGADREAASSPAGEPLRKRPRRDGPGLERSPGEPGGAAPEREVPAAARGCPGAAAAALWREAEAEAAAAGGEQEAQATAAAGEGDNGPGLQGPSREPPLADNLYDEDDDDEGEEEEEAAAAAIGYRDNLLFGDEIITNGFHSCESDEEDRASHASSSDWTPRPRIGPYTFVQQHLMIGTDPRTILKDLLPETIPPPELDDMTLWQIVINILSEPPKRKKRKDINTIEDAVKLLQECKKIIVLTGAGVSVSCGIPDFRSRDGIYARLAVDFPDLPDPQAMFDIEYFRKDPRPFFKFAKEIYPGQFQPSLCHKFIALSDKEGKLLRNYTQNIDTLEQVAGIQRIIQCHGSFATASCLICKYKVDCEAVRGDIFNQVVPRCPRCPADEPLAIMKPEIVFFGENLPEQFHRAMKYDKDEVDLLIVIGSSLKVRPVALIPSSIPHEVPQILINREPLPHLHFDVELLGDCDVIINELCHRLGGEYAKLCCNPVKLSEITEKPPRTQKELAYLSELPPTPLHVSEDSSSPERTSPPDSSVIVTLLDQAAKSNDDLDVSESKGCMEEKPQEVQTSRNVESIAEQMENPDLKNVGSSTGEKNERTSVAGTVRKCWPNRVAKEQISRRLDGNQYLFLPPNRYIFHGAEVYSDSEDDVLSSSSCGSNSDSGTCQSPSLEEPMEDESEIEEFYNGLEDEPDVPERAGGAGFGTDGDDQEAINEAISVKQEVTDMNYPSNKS

[5] = target: T2, NAD-dependent protein deacetylase sirtuin-1; assay: Inhibition of human N-terminal His-tagged SIRT1 (183 to 664 residues) expressed in Escherichia coli using Ac-Arg-Leu-Ile-Lys(Ac)-AMC as substrate preincubated for 10 mins followed by substrate addition and measured after 30 mins in presence of NAD+ by fluorescence assay
[6] = target: T3, NAD-dependent protein deacetylase sirtuin-2 (Homo sapiens, UniProt Q8IXJ6); assay: Inhibition of human N-terminal His-tagged SIRT2 (56 to 356 residues) expressed in Escherichia coli using Ac-Ser-Ser-Ile-Lys(De)-AMC as substrate preincubated for 10 mins followed by substrate addition and measured after 30 mins in presence of NAD+ by fluorescence assay
T3 sequence (Q8IXJ6 whole entry): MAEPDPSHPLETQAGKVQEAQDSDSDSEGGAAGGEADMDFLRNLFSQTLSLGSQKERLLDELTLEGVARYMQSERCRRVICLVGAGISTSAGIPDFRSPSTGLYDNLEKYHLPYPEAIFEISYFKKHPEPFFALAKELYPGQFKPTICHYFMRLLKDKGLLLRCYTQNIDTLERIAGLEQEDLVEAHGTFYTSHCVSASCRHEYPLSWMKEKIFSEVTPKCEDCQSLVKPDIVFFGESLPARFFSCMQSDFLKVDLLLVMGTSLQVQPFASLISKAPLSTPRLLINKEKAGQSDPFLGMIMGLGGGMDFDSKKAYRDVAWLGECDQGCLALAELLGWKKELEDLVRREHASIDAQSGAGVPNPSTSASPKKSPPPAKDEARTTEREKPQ

[7] = target: T3, NAD-dependent protein deacetylase sirtuin-2; assay: Inhibition of human N-terminal His-tagged SIRT2 (56 to 356 residues) expressed in Escherichia coli using Ac-Arg-Leu-Ile-Lys(Ac)-AMC as substrate preincubated for 10 mins followed by substrate addition and measured after 30 mins in presence of NAD+ by fluorescence assay

Structure (SMILES): CC(C)c1ccccc1Cc1cc(C(=O)Nc2ccc(S(=O)(=O)c3ccccc3C(C)(C)C)cc2)c(O)c(O)c1O
- IC50 [1]: 21.9 µM
- IC50 [2]: 6.1 µM
- IC50 [3]: 6.6 µM

Structure (SMILES): c1cncc(-c2c[nH]nn2)c1
- IC50 [4]: 146 µM
- IC50 [5]: 261 µM

Structure (SMILES): NC(=O)C1CCCc2c1[nH]c1ccc(Cl)cc21 (centres undefined)
- IC50 [1]: > 200 µM
- IC50 [2]: > 200 µM

Structure (SMILES): Cc1ccc(C(=O)Nc2ccc(S(=O)(=O)O)c3cc(S(=O)(=O)O)cc(S(=O)(=O)O)c23)cc1NC(=O)c1cccc(NC(=O)Nc2cccc(C(=O)Nc3cc(C(=O)Nc4ccc(S(=O)(=O)O)c5cc(S(=O)(=O)O)cc(S(=O)(=O)O)c45)ccc3C)c2)c1 [SURAMIN]
- IC50 [6]: 23.3 µM
- IC50 [7]: 2.2 µM
